Data from PubChem BioAssay (NCI).
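Step 1: Grow cells in 96-well plates. Step 2: Expose to compound for 48 hours at 5 concentrations. Step 3: Interpolate endpoints linearly; if unreached, use highest concentration. TGI: total growth inhibition.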

What was measured:
Assay in all cases: inhibition of tumour cell growth, NCI panel, 48 h
[1] = tested on: NCI-H460 lung
[2] = tested on: K-562 leukemia
[3] = tested on: HCT-116 colon
[4] = tested on: SF-539 CNS
[5] = tested on: UACC-62 melanoma
[6] = tested on: TK-10 renal
[7] = tested on: MDA-MB-435
[8] = tested on: HS 578T breast
[9] = tested on: SF-295 CNS
[10] = tested on: NCI/ADR-RES ovarian
[11] = tested on: OVCAR-4 ovarian
[12] = tested on: CAKI-1 renal
[13] = tested on: SK-MEL-28 melanoma
[14] = tested on: HOP-92 NSCLC
[15] = tested on: IGROV1 ovarian
[16] = tested on: M14 melanoma
[17] = tested on: NCI-H522 lung
[18] = tested on: CCRF-CEM leukemia
[19] = tested on: SNB-19 CNS
[20] = tested on: OVCAR-3 ovarian
[21] = tested on: MALME-3M melanoma
[22] = tested on: OVCAR-8 ovarian
[23] = tested on: HT29 colon
[24] = tested on: OVCAR-5 ovarian
[25] = tested on: SW-620 colon
[26] = tested on: RXF 393 renal
[27] = tested on: PC-3 prostate
[28] = tested on: NCI-H226 lung
[29] = tested on: MOLT-4 leukemia
[30] = tested on: COLO 205 colon
[31] = tested on: HCC-2998 colon
[32] = tested on: LOX IMVI melanoma
[33] = tested on: SK-OV-3 ovarian
[34] = tested on: HOP-62 NSCLC
[35] = tested on: RPMI-8226 leukemia
[36] = tested on: DU-145 prostate
[37] = tested on: SR leukemia
[38] = tested on: SNB-75 CNS
[39] = tested on: U251 CNS
[40] = tested on: A498 renal
[41] = tested on: HL-60(TB) leukemia
[42] = tested on: MDA-N
[43] = tested on: SN12C renal
[44] = tested on: SK-MEL-5 melanoma
[45] = tested on: UO-31 renal
[46] = tested on: SF-268 CNS
[47] = tested on: 786-0 renal
[48] = tested on: A549 NSCLC
[49] = tested on: EKVX NSCLC
[50] = tested on: ACHN renal
[51] = tested on: KM12 colon
[52] = tested on: MDA-MB-231 breast
[53] = tested on: UACC-257 melanoma
[54] = tested on: T-47D breast
[55] = tested on: NCI-H23 lung
[56] = tested on: HCT-15 colon
[57] = tested on: MCF7 breast
[58] = tested on: SK-MEL-2 melanoma
[59] = tested on: BT-549 breast

`CCCCCc1c(Cl)nc(Cl)nc1Cl` was tested, and the TGI [1] was 51.9 µM, the TGI [2] was 7.45 µM and the TGI [3] was 14.1 µM. It also gave a TGI [4] of 29.9 µM, a TGI [5] of 43.3 µM and a TGI [6] of 32.2 µM. For the same compound, the TGI [7] was 6.98 µM, the TGI [8] was > 100 µM and the TGI [9] was 53.7 µM. It also gave a TGI [10] of 46.3 µM, a TGI [11] of 43 µM and a TGI [12] of 8.6 µM. The TGI [13] was 46.5 µM, the TGI [14] was 15.3 µM and the TGI [15] was 31.9 µM. The TGI [16] was 5.46 µM, the TGI [17] was 6.61 µM and the TGI [18] was 0.65 µM. For the same compound, the TGI [19] was 38.9 µM, the TGI [20] was 30.8 µM and the TGI [21] was 28.1 µM. For the same compound, the TGI [22] was 25.9 µM, the TGI [23] was 18.5 µM and the TGI [24] was 31.1 µM. For the same compound, the TGI [25] was 26.2 µM, the TGI [26] was 23.7 µM and the TGI [27] was 36.9 µM. For the same compound, the TGI [28] was 6.02 µM, the TGI [29] was 1.01 µM and the TGI [30] was 27 µM. For the same compound, the TGI [31] was 27 µM, the TGI [32] was 6.01 µM and the TGI [33] was 31.8 µM. The TGI [34] was 39.7 µM, the TGI [35] was 12.3 µM and the TGI [36] was 45.5 µM. For the same compound, the TGI [37] was 0.86 µM, the TGI [38] was 93.1 µM and the TGI [39] was 25.1 µM. For the same compound, the TGI [40] was 34.7 µM, the TGI [41] was 5.93 µM and the TGI [42] was 16.6 µM. The TGI [43] was 10.8 µM, the TGI [44] was 18.1 µM and the TGI [45] was 37.9 µM. The TGI [46] was 49.2 µM, the TGI [47] was 12.8 µM and the TGI [48] was > 92.3 µM. It also gave a TGI [49] of 52 µM, a TGI [50] of 77.7 µM and a TGI [51] of 28.6 µM. It also gave a TGI [52] of 17.8 µM, a TGI [53] of 29.7 µM and a TGI [54] of 52.2 µM. The TGI [55] was 16 µM, the TGI [56] was 29.9 µM and the TGI [57] was 27.3 µM.
With `C=CCNC(=O)NNC(O)(C(=O)OCC)C(F)(F)F` (centres undefined) the TGI [1] was > 100 µM, the TGI [2] was > 100 µM and the TGI [3] was > 100 µM. For the same compound, the TGI [4] was > 100 µM, the TGI [6] was > 100 µM and the TGI [7] was > 100 µM. For the same compound, the TGI [8] was > 100 µM, the TGI [10] was > 100 µM and the TGI [11] was > 100 µM. The TGI [12] was > 100 µM, the TGI [13] was > 100 µM and the TGI [14] was > 100 µM. The TGI [15] was > 100 µM, the TGI [58] was > 100 µM and the TGI [16] was > 100 µM. The TGI [17] was > 100 µM, the TGI [18] was > 100 µM and the TGI [19] was > 100 µM. The TGI [20] was > 100 µM, the TGI [21] was > 100 µM and the TGI [22] was > 100 µM. For the same compound, the TGI [23] was > 100 µM, the TGI [24] was > 100 µM and the TGI [25] was > 100 µM. For the same compound, the TGI [26] was > 100 µM, the TGI [27] was > 100 µM and the TGI [28] was > 100 µM. For the same compound, the TGI [29] was > 100 µM, the TGI [30] was > 100 µM and the TGI [31] was > 100 µM. For the same compound, the TGI [32] was > 100 µM, the TGI [33] was > 100 µM and the TGI [34] was > 100 µM. The TGI [35] was > 100 µM, the TGI [36] was > 100 µM and the TGI [37] was > 100 µM. The TGI [38] was > 100 µM, the TGI [39] was > 100 µM and the TGI [40] was > 100 µM. The TGI [41] was > 100 µM, the TGI [42] was > 100 µM and the TGI [43] was > 100 µM. For the same compound, the TGI [44] was > 100 µM, the TGI [45] was > 100 µM and the TGI [46] was > 100 µM. The TGI [47] was > 100 µM, the TGI [48] was > 100 µM and the TGI [49] was > 100 µM. The TGI [50] was > 100 µM, the TGI [51] was > 100 µM and the TGI [52] was > 100 µM. The TGI [53] was > 100 µM, the TGI [54] was > 100 µM and the TGI [55] was > 100 µM. For the same compound, the TGI [56] was > 100 µM and the TGI [57] was > 100 µM.
With `COc1c(-c2ccccc2)oc2c(CP(=O)(OC)OC)cccc2c1=O` the TGI [2] was > 100 µM, the TGI [3] was > 100 µM and the TGI [4] was > 100 µM. For the same compound, the TGI [5] was > 100 µM, the TGI [6] was > 100 µM and the TGI [7] was > 100 µM. For the same compound, the TGI [9] was > 100 µM, the TGI [12] was 5.11 µM and the TGI [15] was > 100 µM. For the same compound, the TGI [58] was > 100 µM, the TGI [16] was > 100 µM and the TGI [17] was > 100 µM. The TGI [18] was > 100 µM, the TGI [20] was > 100 µM and the TGI [21] was > 100 µM. For the same compound, the TGI [24] was > 100 µM, the TGI [26] was > 100 µM and the TGI [27] was > 100 µM. For the same compound, the TGI [29] was > 100 µM, the TGI [30] was > 100 µM and the TGI [31] was > 100 µM. For the same compound, the TGI [33] was > 100 µM, the TGI [34] was > 100 µM and the TGI [35] was 53.8 µM. For the same compound, the TGI [36] was > 100 µM, the TGI [59] was > 100 µM and the TGI [37] was > 100 µM. The TGI [39] was > 100 µM, the TGI [40] was > 100 µM and the TGI [42] was > 100 µM. For the same compound, the TGI [43] was > 100 µM, the TGI [44] was > 100 µM and the TGI [45] was 41.9 µM. The TGI [47] was > 100 µM, the TGI [48] was > 100 µM and the TGI [49] was > 100 µM. The TGI [52] was > 100 µM, the TGI [53] was > 100 µM and the TGI [54] was > 100 µM. The TGI [55] was > 100 µM and the TGI [57] was > 100 µM.
